US20080039430A1, “Pharmaceutical Compositions For The Treatment Of Leishmaniasis” (priority 2004, published 2008)

Assays:
[1] = test system: L. infantum axenic amastigotes; assay: Growth of axenically grown amastigotes, viable parasites by FACs analysis; format: cell-based
Experimental: (§1) The growth of Leishmania amastigotes and promastigotes was followed in axenic culture conditions in the presence or absence of NAm.
(§2) A cloned line of L. infantum (MHOM/MA/67/ITMAP-263) was used in all experiments. Each subculture was initiated at 5×10^5 parasites/ml of medium. Axenically grown amastigote forms of L. infantum were maintained at 37° C. with 5% CO2 by weekly subpassages in a cell-free medium called MAA/20 (medium for axenically grown amastigotes) in 25-ml flasks, as previously described (10). Promastigote forms were maintained at 26° C. by weekly subpassage in SDM 79 medium supplemented with 10% foetal calf serum (FCS) and 100 units/ml penicillin and 100 μg/ml streptomycin. Nicotinamide (SIGMA, St Louis) was added at the appropriate concentration and the mean number of viable parasites determined using FACs analysis, as previously described (11).

THP-1 monocytes = assay: Growth and viability of THP-1 monocytes; format: cell-based; settings: 3 days
Experimental: In a first series of experiments, THP-1 monocytes were incubated during 3 days with various concentrations of NAm and the growth and viability of cells were recorded. Up to 10 mM of NAm, no effect on cell growth and viability was observed. In contrast, 20 mM NAm inhibited the proliferation of THP-1 monocyte by about 45% in agreement with the values recorded for other cell types: SupT1 and PBLs cells (6).

[2] = patient treated with accelerated radiotherapy for head and Neck cancer; cited from earlier work
intracellular amastigote = assay: Intracellular amastigote proliferation in THP-1 differentiated macrophages, parasitic index; format: cell-based, Leishmania infantum; settings: for IC50: Leishmania infantum, THP-1, read-out: IC50, intracellular growth of Leishmania infantum
Experimental: Thus, THP-1 differentiated macrophages were infected with stationary phase amastigotes at a host cell-parasite ratio of 5:1. After 4 hours, non adherent parasites were removed and nicotinamide was added to the medium at the appropriate concentration. After 3 days of incubation time, cells were fixed with methanol and stained with giemsa. Parasitic index PI (mean percentage of infected macrophages X number of amastigotes per macrophage) was determined. […] At this concentration a reduction of almost 70% of PI was observed.

SIRT1 = molecular target: T1, SIRT1 (Homo sapiens, UniProt Q96EB6); assay: NAD-dependent deacetylase activity, cyclex SIR2 assay kit with SIRT1; format: biochemical
T1 construct: purchased MBL, Japan
T1 sequence (Q96EB6 1-747): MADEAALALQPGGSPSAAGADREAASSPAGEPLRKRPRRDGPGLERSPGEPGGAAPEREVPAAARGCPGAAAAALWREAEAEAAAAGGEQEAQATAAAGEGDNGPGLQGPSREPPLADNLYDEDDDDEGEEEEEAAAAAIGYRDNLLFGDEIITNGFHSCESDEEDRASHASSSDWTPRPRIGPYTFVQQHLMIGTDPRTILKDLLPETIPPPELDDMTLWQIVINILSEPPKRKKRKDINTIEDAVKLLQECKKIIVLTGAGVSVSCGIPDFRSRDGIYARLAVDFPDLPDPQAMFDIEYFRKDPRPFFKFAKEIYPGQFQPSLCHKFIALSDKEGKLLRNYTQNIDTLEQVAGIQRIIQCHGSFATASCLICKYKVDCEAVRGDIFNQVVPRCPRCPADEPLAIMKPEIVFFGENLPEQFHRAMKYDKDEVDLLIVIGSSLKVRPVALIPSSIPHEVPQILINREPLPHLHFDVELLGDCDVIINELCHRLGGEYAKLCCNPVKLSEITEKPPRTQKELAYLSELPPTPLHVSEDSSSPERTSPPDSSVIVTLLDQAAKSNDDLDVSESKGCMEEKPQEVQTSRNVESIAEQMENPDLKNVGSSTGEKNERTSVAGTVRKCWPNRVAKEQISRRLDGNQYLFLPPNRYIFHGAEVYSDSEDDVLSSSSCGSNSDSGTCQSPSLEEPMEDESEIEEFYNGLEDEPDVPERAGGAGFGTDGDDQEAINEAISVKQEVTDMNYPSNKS
Experimental: Therefore, complementary experiments were conducted in order to examine whether NAm could interfere with Leishmania deacetylase activity in vitro. To test this possibility, a commercially available “[…] SIR2 assay kit” and SIRT1 as a standard enzyme (MBL, Japan) were used.

[3] = test system: L. amazonsensis amastigotes; assay: Growth inhibition of L. amazonsensis amastigotes; format: cell-based
[4] = test system: L. infantum amastigotes which overexpress LmSIR2; assay: NAm-induced death of amastigotes overexpressing LmSIR2; format: cell-based; settings: FIGS. 3A and 3B, growth inhibition and YOPRO-1 positive cells
Experimental: To further examine the possible correlation between the level of SIR2 expression and the sensitivity/resistance to NAm-induced Leishmania amastigotes death, NAm was added to cultures of mutant L. infantum amastigotes which overexpress LmSIR2 or carrying the empty pTEX plasmid as controls.

LmSIR2 = molecular target: T2, LmSIR2 (Leishmania major, UniProt Q25337); assay: NAD-dependent deacetylase activity in Leishmania extracts (pTEX-LmSIR2); format: biochemical; settings: 5 mM NAm, 200 μM NAD
T2 construct: expressed in transfected cells; host or cells: Leishmania infantum (MHOM/MA/67/ITMAP-263) carrying pTEX-LmSIR2; NP40 lysate
T2 sequence (Q25337 whole entry): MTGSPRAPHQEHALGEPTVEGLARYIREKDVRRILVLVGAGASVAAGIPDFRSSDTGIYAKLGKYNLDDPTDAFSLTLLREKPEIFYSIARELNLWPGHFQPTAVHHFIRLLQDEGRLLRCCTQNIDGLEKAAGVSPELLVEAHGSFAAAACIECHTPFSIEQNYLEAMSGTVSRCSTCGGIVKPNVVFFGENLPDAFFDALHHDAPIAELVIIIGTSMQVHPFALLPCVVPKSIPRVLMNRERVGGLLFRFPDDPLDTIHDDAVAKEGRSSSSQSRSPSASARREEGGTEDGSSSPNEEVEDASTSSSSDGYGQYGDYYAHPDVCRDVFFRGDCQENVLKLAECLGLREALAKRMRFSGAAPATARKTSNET
Experimental: Having established a standard inhibitory assay, the effect of NAm was then examined on the NAD-dependent deacetylase activity contained in Leishmania extracts from mutant parasites carrying extra copies of LmSIR2 gene (pTEX-LmSIR2) or empty plasmid DNA (pTEX) (11).
Briefly, 2 10^5 parasites were collected and washed two times with PBS 0.01M pH 7.2 and incubated in a lysis solution (100 mM Tris-HCl, 150 mM NaCl, 1 mM EDTA, 1% NP40, 5 μM Trichostatin A, pH 8.8), cells were then centrifuged for 20 min at 10 000 rpm at 4° C. Deacetylase activity in the presence or absence of 200 μM NAD was measured. Results are expressed as relative F355/F460 counts=F355/F460 counts in the presence of NAD—F355/F460 counts in the absence of NAD. This allowed to discriminate between fluorescence due to the action of LmSIR2 to fluorescence due to the presence of compounds which could interfere with the test.

axenic amastigote = assay: YOPRO-1 positive (apoptotic) axenic amastigotes; format: cell-based, L. infantum
Experimental: After 24, 48 and 72 hours of incubation aliquots (10^6 parasites) were collected, washed and incubated for 10 min with 10 μM of YO[…], an apoptotic cell marker (Molecular probes). The mean percentage of YO[…] positive cells was determined as previously described (9).

[5] = test system: L. infantum promastigotes; assay: Growth of promastigotes in axenic culture, viable parasites by FACs analysis; format: cell-based
Experimental: as §1, §2

Leishmania parasites = settings: compared with NAm

SMILES | capacity of axenic amastigotes to proliferate ([1]; 20 mM NAm) | proliferation of amastigotes ([1]; FIG. 1B, 10 mM or 20 mM NAm) | inhibition at 20000 µM (THP-1 monocytes; Homo sapiens, THP-1, 72 h, 20 mM NAm, read-out: inhibition of proliferation of THP-1 monocyte) [%] | effect on cell growth and viability of THP-1 monocytes (THP-1 monocytes; up to 10 mM NAm) | plasmatic concentration achievable [2] [mM] | inhibition of intracellular amastigote proliferation (intracellular amastigote; 2.5 mM NAm, vs control non treated cultures, p<0.05) | reduction of parasitic index (PI) (intracellular amastigote; 10 mM NAm, 3 days, THP-1 differentiated macrophages (maximal activity)) [%] | IC50 (intracellular amastigote) [mM] | effect on enzymatic (deacetylase) activity of SIRT1 (SIRT1; 5 mM) | effect on enzymatic (deacetylase) activity of SIRT1 (SIRT1; 20 mM) | growth inhibitory activity on L. amazonsensis amastigotes [3] | resistance to NAm-induced death from extra copies of LmSIR2 [4] | NAD dependent deacetylase activity in parasites overexpressing LmSIR2 (LmSIR2) | leishmanicidal effect, YOPRO-1 positive cells (axenic amastigote; 100 mM NAm, after 3 days of culture (FIG. 1C)) | leishmanicidal activity, occurrence of YOPRO-1 positive cells (axenic amastigote; concentrations higher than 25 mM, 24, 48 and 72 hours) | growth of promastigotes ([5]; 20 mM NAm) | proliferation of promastigotes ([5]; FIG. 1A, 10 mM or 20 mM NAm) | growth inhibitory activity towards Leishmania parasites (Leishmania parasites)
NC(=O)c1cccnc1 [NAm, nicotinamide] | virtually completely abrogated | strongly inhibited | ~45 | no effect | 0.7 to 2.3 | significantly inhibit | ~70 | < 2.5 | almost completely abrogated | almost completely abrogated | sensitive | did not confer significant resistance | significantly inhibited | Maximal effect | strong dose-dependent leishmanicidal activity | a delay in the growth | strongly inhibited | –
O=C(O)c1cccnc1 [NicotAc, nicotinic acid] | – | – | – | – | – | – | – | < 2.5 | no significant effect | – | – | – | – | – | – | – | – | exerted a growth inhibitory activity towards Leishmania parasites, although at higher concentrations
